The values below come from EP4389886A1, “LACTASE ENZYMES AND METHOD OF PRODUCING A MILK-BASED PRODUCT” (Novozymes A/S, priority 2022, dated 2024).

The subject of assay [1] is experimental Bifidobacterium lactase. The note with it: substrate lactose, cited from earlier work.
In assay [2] the test system is Lactozym® Pure (lactase, Novozymes A/S). Put plainly: Lactose turn-over per enzyme molecule in milk at 5°C. The class given is biochemical. As to the method:
(§1) In a preferred embodiment, the enzyme having lactase activity has an initial lactose turn-over of at least 10 per second per enzyme molecule in milk at 5°C. The initial lactose turn-over may be determined, e.g., when 0-10% of the lactose has been hydrolyzed. The skilled person will know how to determine the initial lactose turn-over per enzyme molecule. For example, it can be a direct measurement of lactose using HPLC or indirect using a glucose detection method.

The subject of assay [3] is Saphera® (lactase, Novozymes A/S). The assay is described as above. It counts as biochemical. On the procedure:
as §1

The mark [4] stands for this setting: initial rate (4.7% to 4.23% lactose).

SMILES strings stand for the structures. Where two headings read alike, the source gives them in different places.

For orientation: Km means the substrate concentration at which the rate is half of its maximum. For the molecule `OC[C@H]1O[C@@H](O[C@H]2[C@H](O)[C@@H](O)C(O)O[C@@H]2CO)[C@H](O)[C@@H](O)[C@H]1O` (some centres unmarked) [lactose], the values for the Km in assay [1] (at 5°C) and in assay [1] (at 37°C) were 8 mM and 13 mM, respectively. For the same molecule, the “average lactose turn-over from initial lactose of 4.7% to 0.01% residual lactose” value in assay [2] is recorded as “about 5 sec^-1”; in assay [3] it was “about 18 sec^-1”. Besides, the figures for the “average lactose turn-over from initial lactose of 4.7% to 0.1% residual lactose” value in assay [2] and in assay [3] were “about 9 sec^-1” and “about 23 sec^-1”, respectively. Also, the “initial lactose turn-over per enzyme molecule” value is reported as “about 36 sec^-1” in assay [2] (setting [4]) and “about 89 sec^-1” in assay [3] (setting [4]).
